Laboratory results reported in US6479525B2, “Aspartate derivative of amlodipine” (Synthon BV, priority 2000, dated 2002).

Tested on: isolated heart tissue
Assay: reduction of calcium-induced contraction of isolated heart tissue in vitro (calcium channel blocking activity)
Settings: degree of reduction of contraction of an isolated heart tissue induced by an addition of calcium ions in vitro

Structure (SMILES): CCOC(=O)C1=C(COCCN[C@@H](CC(=O)O)C(=O)O)NC(C)=C(C(=O)OC)C1c1ccccc1Cl (stereo partly shown) [Compound of formula (1), N-(2-{[4-(2-chlorophenyl)-3-(ethoxycarbonyl)-5-(methoxycarbonyl)-6-methyl-1,4-dihydro-2-pyridinyl]methoxy}ethyl)aspartic acid]
- calcium channel blocking activity (ability to inhibit the movement of calcium into a cell): has been shown
